Active and inactive are the calls of the source. The rule behind the calls is not given here.
Target: TEM-1 beta-lactamase (Escherichia coli) (UniProt Q932Y6)
Assay: TEM-1 beta-lactamase inhibitor potency, late-stage follow-up, counter-screen for dual metallo-beta-lactamase inhibitor project, biochemical, epi-absorbance, IC50 (AID 2767)
Conditions: nitrocefin absorbance

Chain of TEM-1 beta-lactamase (Escherichia coli) (Q932Y6 1-286): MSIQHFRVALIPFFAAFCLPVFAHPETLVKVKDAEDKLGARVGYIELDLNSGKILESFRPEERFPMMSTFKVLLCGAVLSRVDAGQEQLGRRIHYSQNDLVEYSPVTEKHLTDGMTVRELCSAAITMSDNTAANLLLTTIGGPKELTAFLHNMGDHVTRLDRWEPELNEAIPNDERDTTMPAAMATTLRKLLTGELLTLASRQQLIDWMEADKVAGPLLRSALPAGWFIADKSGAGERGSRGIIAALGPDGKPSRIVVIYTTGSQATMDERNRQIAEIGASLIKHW

SMILES	IC50
[Hg+][c]1ccccc1	> 59.6 µM (inactive)
CC(=O)Nc1cc[c]([Hg+])cc1	> 59.6 µM (inactive)
O=C(O)c1cc[c]([Hg][Cl])cc1	> 59.6 µM (inactive)
COc1cccc[c]1[Hg+]	> 59.6 µM (inactive)
O=C(O)c1ccc[c]([Hg+])c1	> 59.6 µM (inactive)
Cc1cc[c]([Hg+])cc1	> 59.6 µM (inactive)

From PubChem BioAssay AID2767 (The Scripps Research Institute Molecular Screening Center, 2010)
